Test results taken from BigSolDB 2.1.

CCc1cccc2c3c([nH]c12)C(CC)(CC(=O)O)OCC3 (stereo unspecified)
solubility (mole fraction)
Conditions | 278.15 K | 283.15 K | 288.15 K | 293.15 K | 298.15 K | 303.15 K | 308.15 K | 313.15 K | 318.15 K | 323.15 K
in acetone | 0.0935 | 0.101 | 0.109 | 0.117 | 0.127 | 0.136 | 0.147 | 0.157 | 0.168 | 0.178
in dichloromethane | 0.00979 | 0.0124 | 0.0155 | 0.019 | 0.0229 | 0.0271 | – | – | – | –
in isobutanol | 0.0224 | 0.0265 | 0.0316 | 0.0382 | 0.0476 | 0.0594 | 0.0707 | 0.086 | 0.104 | 0.123
in isobutyl acetate | 0.0428 | 0.0475 | 0.0529 | 0.0584 | 0.0649 | 0.07 | 0.0774 | 0.0861 | 0.0959 | 0.108
in isopentyl acetate | 0.0413 | 0.0457 | 0.0509 | 0.0563 | 0.0629 | 0.068 | 0.0758 | 0.084 | 0.0944 | 0.105
in isopropanol | 0.0267 | 0.0307 | 0.0363 | 0.0444 | 0.0547 | 0.0669 | 0.078 | 0.0907 | 0.109 | 0.127
in methyl acetate | 0.0464 | 0.0519 | 0.0578 | 0.0638 | 0.0687 | 0.0769 | 0.0834 | 0.0921 | 0.101 | 0.111
in n-butanol | 0.0371 | 0.0422 | 0.0485 | 0.0573 | 0.0675 | 0.078 | 0.0873 | 0.0994 | 0.117 | 0.135
in n-butyl acetate | 0.0455 | 0.0507 | 0.0563 | 0.0627 | 0.0682 | 0.0748 | 0.0825 | 0.0915 | 0.101 | 0.111
in n-pentyl acetate | 0.0453 | 0.0503 | 0.0558 | 0.0621 | 0.0666 | 0.0738 | 0.0803 | 0.0892 | 0.0983 | 0.108
in n-propanol | 0.0342 | 0.0391 | 0.0452 | 0.0548 | 0.0648 | 0.0751 | 0.0849 | 0.0969 | 0.114 | 0.131
in toluene | 0.00117 | 0.00147 | 0.0019 | 0.0024 | 0.00316 | 0.00394 | 0.00501 | 0.0065 | 0.00838 | 0.0108
